The record followed here is patent publication US20050009840A1 (SUGEN, INC., priority 2003, published 2005).

Like-named read-outs stand apart in the source and are kept apart here.

The assay addresses T1, Met kinase domain (GST fusion protein) (Homo sapiens, UniProt P08581).
T1 construct: Purified GST fusion protein containing the Met kinase domain
In words: Met transphosphorylation assay (ELISA, poly(glu-tyr) substrate).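 As to all read-outs here: Cell-free ELISA with plate-bound poly(Glu:Tyr 4:1) phosphorylated by GST-fused Met kinase domain plus ATP and Mn2+, phosphotyrosine detected by anti-phosphotyrosine antibody with HRP and ABTS read-out.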 It is filed as biochemical. The note with it: for IC50: read-out: Met IC50; for inhibition at 20 µM: read-out: Met inhibition (printed in the Met IC50 column).

The mark [1] stands for this setting: plain numbers in column Met IC50 (μM) of Table 2.

One may read the IC50 as the midpoint of a concentration-inhibition curve. Usually inhibition stands for the drop in the measured response relative to a control, in per cent.

T1 sequence (P08581 1078-1345 limits assumed): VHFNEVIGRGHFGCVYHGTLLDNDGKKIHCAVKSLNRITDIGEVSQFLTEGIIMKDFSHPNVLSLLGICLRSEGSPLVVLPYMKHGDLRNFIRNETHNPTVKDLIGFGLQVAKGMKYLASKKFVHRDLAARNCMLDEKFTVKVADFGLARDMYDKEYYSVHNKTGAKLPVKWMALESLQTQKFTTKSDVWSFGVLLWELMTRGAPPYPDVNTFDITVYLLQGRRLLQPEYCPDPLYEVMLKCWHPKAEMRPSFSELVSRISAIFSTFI

For `CC(Oc1cc(-c2ccc(NC(=O)N3CC[C@@H](N)C3)cc2)cnc1N)c1c(Cl)ccc(F)c1Cl` (stereo partly drawn) [Example I-375, (R)-3-Amino-pyrrolidine-1-carboxylix acid (4-{6-amino-5-[1-(2,6-dichloro-3-fluoro-phenyl)-ethoxy]-pyridin-3-yl}-phenyl)-amide], the IC50 under setting [1] turned out to be 0.053 µM. Consider `CC(=O)N1CCN(CCS(=O)(=O)Nc2cccc(-c3cnc(N)c(OCc4c(F)ccc(F)c4Cl)n3)c2)CC1` [II-23, 2-(4-Acetyl-piperazin-1-yl)-ethanesulfonic acid {3-[5-amino-6-(2-chloro-3,6-difluoro-benzyloxy)-pyrazin-2-yl]-phenyl]-amide], for which the IC50 amounted to 2.79 µM.

Turning to `N#Cc1ccccc1COc1cc(-c2ccc(C(=O)NCCCN3CCOCC3)cc2)cnc1N` [Example I-170, 4-[6-Amino-5-(2-cyano-benzyloxy)-pyridin-3-yl]-N-(3-morpholin-4-yl-propyl)-benzamide], the IC50 turned out to be 17.3 µM.

For `Nc1ncc(-c2cccc(NS(=O)(=O)CCN3CCC(O)CC3)c2)cc1OCc1c(F)ccc(F)c1Cl` [Example I-262, 2-(4-Hydroxy-piperidin-1-yl)-ethanesulfonic acid {3-[6-amino-5-(2-chloro-3,6-difluoro-benzyloxy)-pyridin-3-yl]-phenyl}-amide], the IC50 (Table 2) is 1.5 µM.

In the case of `Nc1ncc(-c2cccc(OCCN3CCOCC3)c2)cc1OCc1c(Cl)cccc1Cl` [Example I-3, 3-(2,6-Dichloro-benzyloxy)-5-[3-(2-morpholin-4-yl-ethoxy)-phenyl]-pyridin-2-ylamine], the IC50 was found to be 0.59 µM. With `CN(C)CCS(=O)(=O)Nc1cccc(-c2cnc(N)c(OCc3c(F)ccc(F)c3Cl)c2)c1` [Example I-259, 2-Dimethylamino-ethanesulfonic acid {3-[6-amino-5-(2-chloro-3,6-difluoro-benzyloxy)-pyridin-3-yl]-phenyl}-amide], the IC50 (Table 2) is 0.5 µM. Same read-out and setting: then `Nc1ncc(-c2ccc(C(=O)NCCN3CCOCC3)cc2)cc1OCc1c(F)ccc(F)c1Cl` [Example I-223], with 0.165 µM. As for `CC(Oc1nc(-c2ccc(NS(=O)(=O)CCN3CCN(C(=O)CO)CC3)cc2)cnc1N)c1c(F)ccc(F)c1Cl` (stereo not shown) [II-120, 2-[4-(2-Hydroxy-acetyl)-piperazin-1-yl]-ethanesulfonic acid (4-{5-amino-6-[1-(2-chloro-3,6-difluoro-phenyl)-ethoxy]-pyrazin-2-yl}-phenyl)-amide], the IC50 was determined as 0.19 µM. Same read-out and setting: then `Nc1ncc(-c2ccc(C(=O)NCC(O)CN3CCCC3)cc2)cc1OCc1c(Cl)cccc1Cl` (stereo not shown) [Example I-46, 4-[6-Amino-5-(2,6-dichloro-benzyloxy)-pyridin-3-yl]-N-(2-hydroxy-3-pyrrolidin-1-yl-propyl)-benzamide], with 0.2 µM. `CC(Oc1cc(-c2ccc(OCCN(C(C)C)C(C)C)cc2)cnc1N)c1c(Cl)ccc(F)c1Cl` (stereo not shown) [Example I-362]: under “Table 2”, the IC50 is 0.052 µM. `CC(Oc1cc(-c2ccccn2)cnc1N)c1c(F)ccc(F)c1Cl` (stereo not shown) [Example I-524, 5′-[1-(2-Chloro-3,6-difluoro-phenyl)-ethoxy]-[2,3′]bipyridinyl-6′-ylamine]: under setting [1], the IC50 was 0.612 µM.

In the case of `Nc1ncc(-c2ccc(C(=O)NCCN3CCOCC3)cc2)cc1OCc1c(F)cccc1Cl` [Example I-148, 4-[6-Amino-5-(2-chloro-6-fluoro-benzyloxy)-pyridin-3-yl]-N-(2-morpholin-4-yl-ethyl)-benzamide], the IC50 is 6.4 µM. In the case of `Nc1ncc(-c2ccc(C(=O)NCCN3CCCC3)cc2)nc1OCc1c(F)ccc(F)c1Cl` [II-35, 4-[5-Amino-6-(2-chloro-3,6-difluoro-benzyloxy)-pyrazin-2-yl]-N-(2-pyrrolidin-1-yl-ethyl)-benzamide], the IC50 was found to be 0.13 µM. As for `CC(Oc1nc(-c2cncc(C(=O)N3CCN(C)CC3)c2)cnc1N)c1c(Cl)ccc(F)c1Cl` (stereo not shown) [II-205, (5-{5-Amino-6-[1-(2,6-dichloro-3-fluoro-phenyl)-ethoxy]-pyrazin-2-yl}-pyridin-3-yl)-(4-methyl-piperazin-1-yl)-methanone], the IC50 worked out at 0.1 µM. For `Nc1ncc(-c2ccc3[nH]cc(CN4CCOCC4)c3c2)nc1OCc1c(F)ccc(F)c1Cl` [II-68, 3-(2-Chloro-3,6-difluoro-benzyloxy)-5-(3-morpholin-4-ylmethyl-1H-indol-5-yl)-pyrazin-2-ylamine], the 50% inhibitory concentration (IC50) came out at 1.15 µM. As to `Nc1ncc(-c2ccc(NS(=O)(=O)CCN3CCCC3)cc2)cc1OCc1c(F)ccc(F)c1Cl` [Example I-245], the IC50 (Table 2) is 0.082 µM. As to `CC(=O)N1CCN(CCNC(=O)c2cccc(-c3cnc(N)c(OC(C)c4c(F)ccc(F)c4Cl)n3)c2)CC1` (stereo not shown) [II-101, N-[2-(4-Acetyl-piperazin-1-yl)ethyl]-3-{5-amino-6-[1-(2-chloro-3,6-difluoro-phenyl)-ethoxy]-pyrazin-2-yl}-benzamide], the IC50 was 0.64 µM.

As for `CC(Oc1cc(C#CCNC(=O)N2C[C@@H](C)N[C@@H](C)C2)cnc1N)c1c(Cl)ccc(F)c1Cl` (stereo partly drawn) [Example I-415, (3R,5S)-3,5-Dimethyl-piperazine-1-carboxylic acid (3-{6-amino-5-[1-(2,6-dichloro-3-fluoro-phenyl)-ethoxy]-pyridin-3-yl}-prop-2-ynyl)-amide], the IC50 under setting [1] is 0.063 µM. As to `Nc1ncc(-c2cccc(NS(=O)(=O)CCN3CCOCC3)c2)cc1OCc1c(F)ccc(F)c1Cl` [Example I-257, 2-Morpholin-4-yl-ethanesulfonic acid {3-[6-amino-5-(2-chloro-3,6-difluoro-benzyloxy)-pyridin-3-yl]-phenyl}-amide], for the setting “Table 2”, the IC50 turned out to be 1.64 µM. On to `CC(Oc1nc(-c2ccc(NC(=O)NC3CCN(C)CC3)cc2)cnc1N)c1c(F)ccc(F)c1Cl` (stereo not shown) [II-188, 1-(4-{5-Amino-6-[1-(2-chloro-3,6-difluoro-phenyl)-ethoxy]-pyrazin-2-yl}-phenyl)-3-(1-methyl-piperidin-4-yl)-urea], for which the IC50 was found to be 0.054 µM. Turning to `CC(Oc1cc(-c2cccc(C(=O)N3CCN(C)CC3)c2)cnc1N)c1c(Cl)cccc1Cl` (stereo not shown) [Example I-395, (3-{6-amino-5-[1-(2,6-dichloro-phenyl)-ethoxy]-pyridin-3-yl}-phenyl)-(4-methyl-piperazin-1-yl)-methanone], the IC50 under setting [1] stood at 0.058 µM. For `CN(C)C1CCN(C(=O)c2ccc(-c3cnc(N)c(OCc4ccc(C(C)(C)C)cc4)c3)cc2)C1` (stereo in doubt) [Example I-196, {4-[6-Amino-5-(4-tert-butyl-benzyloxy)-pyridin-3-yl]-phenyl}-[(3R)-3-dimethylamino-pyrrolidin-1-yl]-methanone], the concentration for half-maximal inhibition (IC50) (Table 2) was 4.29 µM.

For the compound `CC(Oc1cc(-c2cccc(C(=O)NCCN3CCCC3)c2)cnc1N)c1c(Cl)cccc1Cl` (stereo not shown) [Example I-389, 3-{6-Amino-5-[1-(2,6-dichloro-phenyl)-ethoxy]-pyridin-3-yl}-N-(2-pyrrolidin-1-yl-ethyl)-benzamide], under setting [1], the IC50 stood at 0.13 µM. With `CC(C)CNC(=O)c1ccccc1COc1cc(-c2ccc(NS(C)(=O)=O)cc2)cnc1N` [Example I-140, 2-[2-Amino-5-(4-methanesulfonylamino-phenyl)-pyridin-3-yloxymethyl]-N-isobutyl-benzamide], the IC50 is over 20 µM. `Nc1ncc(-c2ccc(C(=O)N3CCC(N4CCCC4)CC3)s2)nc1OCc1c(F)ccc(F)c1Cl` [II-195, {5-[5-Amino-6-(2-chloro-3,6-difluoro-benzyloxy)-pyrazin-2-yl]-thiophen-2-yl}-(4-pyrrolidin-1-yl-piperidin-1-yl)-methanone]: the IC50 amounted to 0.51 µM. Turning to `Nc1ncc(-c2cccc(NS(=O)(=O)CCNC3CC3)c2)nc1OCc1c(F)ccc(F)c1Cl` [II-32, 2-Cyclopropylamino-ethanesulfonic acid {3-[5-amino-6-(2-chloro-3,6-difluoro-benzyloxy)-pyrazin-2-yl]-phenyl}-amide], the IC50 was determined as 2.13 µM.

On to `CC(Oc1cc(C#CCNC(=O)NC2CCN(C)CC2)cnc1N)c1c(Cl)ccc(F)c1Cl` (stereo not shown) [Example I-416, 1-(3-{6-Amino-5-[1-(2,6-dichloro-3-fluoro-phenyl)-ethoxy]-pyridin-3-yl}-prop-2-ynyl)-3-(1-methyl-piperidin-4-yl)-urea], for which, under setting [1], the IC50 was 0.051 µM. Turning to `Nc1ncc(-c2ccc(NS(=O)(=O)CCN3CC[C@@H](O)C3)cc2)nc1OCc1c(F)ccc(F)c1Cl` [II-13, 2-[(3R)-3-Hydroxy-pyrrolidin-1-yl]-ethanesulfonic acid {4-[5-amino-6-(2-chloro-3,6-difluoro-benzyloxy)-pyrazin-2-yl]-phenyl}-amide], the IC50 was 1.59 µM. With `Nc1ncc(-c2ccccc2)cc1OCc1cc(Cl)ccc1Cl` [Example I-91, 3-(2,5-Dichloro-benzyloxy)-5-phenyl-pyridin-2-ylamine], the inhibition at 20 µM was found to be 48%.

As for `CC(=O)Nc1ccc(-c2cnc(N)c(OCc3c(Cl)cccc3Cl)c2)cc1` [Example I-14, N-{4-[6-Amino-5-(2,6-dichloro-benzyloxy)-pyridin-3-yl]-phenyl}-acetamide], the IC50 was over 20 µM. Consider `CC(=O)N1CCN(CCS(=O)(=O)Nc2cccc(-c3cnc(N)c(OCc4c(F)ccc(F)c4Cl)c3)c2)CC1` [Example I-255, 2-(4-Acetyl-piperazin-1-yl)-ethanesulfonic acid {3-[6-amino-5-(2-chloro-3,6-difluoro-benzyloxy)-pyridin-3-yl]-phenyl}-amide], for which, under “Table 2”, the concentration for half-maximal inhibition (IC50) was found to be 0.68 µM. In the case of `Nc1ncc(-c2ccccc2)cc1OCc1ccccc1Cl` [Example I-90, 3-(2-Chloro-benzyloxy)-5-phenyl-pyridin-2-ylamine], the inhibition at 20 µM amounted to 48%. Consider `CC(Oc1nc(-c2cccc(C(=O)NCCN3CCCC3)c2)cnc1N)c1c(Cl)cccc1Cl` (stereo not shown) [II-170, 3-{5-Amino-6-[1-(2,6-dichloro-phenyl)-ethoxy]-pyrazin-2-yl}-N-(2-pyrrolidin-1-yl-ethyl)-benzamide], for which the IC50 amounted to 0.33 µM.

On to `Nc1ncc(-c2cccc(C(=O)N3CCC[C@H]3CN3CCCC3)c2)nc1OCc1c(F)ccc(F)c1Cl` [II-57, {3-[5-Amino-6-(2-chloro-3,6-difluoro-benzyloxy)-pyrazin-2-yl]-phenyl}-[(2S)-pyrrolidin-1-ylmethyl-pyrrolidin-1-yl]-methanone], for which the IC50 came to 0.63 µM.
